Values joined by “and” are separate entries in the source; they are usually repeats but may differ in a detail not shown here. Identical values can stand only once. “Also recorded” adds a separate entry of the source. Like-named read-outs stand apart in the source and are kept apart here.
Tests used:
[1] = system: mammary gland; experiment: Mammary gland wholemount morphology after E in OVX mice; assay type: in vivo, BALB/c female mice
Procedure: (§1) Ten-week-old or 9-12 month-old BALB/c female mice from our own colony were bilaterally ovariectomized (OVX) under Nembutal anesthesia 1 or 5 weeks prior to E treatment. […] Injection was chosen as the method of systemic administration to optimize precision and reproducibility of hormone dosage. Serum levels of E were determined after OVX and E injection by radioimmunoassay using a commercial kit (Diagnostic Products Corp., Los Angeles, Calif.) according to the suppliers instructions. […] Therefore, in all experiments except time course studies, mammary glands were analyzed at 72 h after E treatment for DNA histoautoradiogrpahy and at 96 h after E treatment for morphological analysis.

[2] = Serum levels of E by radioimmunoassay; assay type: in vivo, BALB/c female mice; settings: female, BALB/c, mouse, 24 h after injection of 1 μg E at 5 wks post OVX, n=4, read-out: E serum level
Procedure: as §1

[3] = system: MCF-7 human breast carcinoma cell line; settings: cited from earlier work
[4] = system: mammary epithelial and stromal cells; experiment: DNA histoautoradiography (3H-thymidine labeling index) after E in OVX mice; assay type: in vivo, BALB/c female mice; settings: for maximum proliferative response, 5 wk vs 1 wk post OVX: dose response study
Procedure: Ten-week-old or 9-12 month-old BALB/c female mice from our own colony were bilaterally ovariectomized (OVX) under Nembutal anesthesia 1 or 5 weeks prior to E treatment. […] Injection was chosen as the method of systemic administration to optimize precision and reproducibility of hormone dosage.
At various times after E injection, animals received a single ip injection of [^3H]thymidine in a dosage of 2 μCi/g BW 1 h before sacrifice. The mammary glands were removed, fixed and processed as wholemounts followed by embedding and sectioning for histoautcradiographic analysis as described previously. Histological sections were examined at 400× magnification to determine the DNA labeling indices (LIs) of epithelial and stromal cells. […] In parallel, stromal cell LIs were determined for areas adjacent to and distal from duct ends. Adjacent areas were defined to be within […] of the duct end (i.e. in the same microscope field at 400× magnification) and the distal areas were defined to be more than 400 μm away from the duct end. A minimum of 10 individual structures were evaluated for each of 5-9 mice per experimental group.

[5] = system: PR; experiment: PR immunohistochemistry/immunofluorescence after E; assay type: in vivo, mice
Source text: A dissociation between E stimulation of cell proliferation and PR regulation in mouse mammary gland has previously been reported (Fendrick, J. L., et al., J Mammary Gland Biol Neoplasia 3:7-22 (1998)). Although E appears to mediate proliferation of epithelial cells indirectly via stroma, E acts directly in epithelial cells to increase PR levels (Haslam, S. Z., Endocrinol 122:860-867 (1988)). Thus, our observations of increased responsiveness to the proliferative effect, but decreased responsiveness to the PR regulatory effect of E indicate that mammary epithelial and stromal cells are affected differently by long-term OVX. To confirm this observation, we have also used immunohistochemical analysis to determine the percentage of PR positive cells and PR concentration per cell, using a fluorescein-conjugated secondary antibody detection system, similar to the ER immunofluorescence assay herein. […] Future studies are planned to determine the mechanistic basis of these different responses to OVX. A similar dissociation of estrogenic regulation of proliferation and PR level has recently been reported for normal human breast (Clark, R. B., et al., Cancer Res 57:4987-4991 (1997)). […] In contrast, since ER and PR do co-localize in the same cells, E appears to act directly to regulate PR in breast epithelial cells. […]

[6] = system: progesterone receptor (PR); experiment: Steroid hormone binding assay ([3H]R5020) for PR concentration after E; assay type: in vivo, BALB/c female mice
Procedure: To determine PR concentration, cytoplasmic extracts were prepared separately for mammary gland and uteri as described previously (Haslam, S. Z., et al., Endocrinol 108:825-830 (1981)). Mammary gland and uterine cytoplasmic extracts were incubated with a single saturating concentration of 20 nM [^3H]R5020 with 100-fold excess radioinert dexamethasone (for suppression of progestin binding to glucocorticoid receptors) or with 100-fold excess radioinert R5020. Specific binding was determined using a dextran-coated charcoal assay procedure as previously described (Haslam, S. Z., et al., Endocrinol 108:825-830(1981)). Tissue DNA was quantitated as previously described (Ceriotti, G., J Biol Chem 198:297-303 (1952)).

[7] = system: progesterone receptor (PR); experiment: PR ligand binding assay, time course of E induction of PR; assay type: in vivo, BALB/c virgin mice; settings: for increase in PR levels: single injection of E
Procedure: Hormone- or control-treated mammary glands were analyzed for progesterone receptor (PR) levels using a dextran-coated charcoal ligand binding assay (Haslam, S. G., Endocrinology 195:789-795 (1979)). Tissue DNA was quantitated as previously described (Ceriotti, G., J Biol Chem 198:297-303 (1952)).

[8] = system: mammary gland duct ends; experiment: Elvax implants of RU486 or ICI 182,780: duct end enlargement in E+P injected OVX mice; assay type: in vivo, BALB/c virgin mice; settings: for reduction of number of enlarged duct ends induced by E+P: implant vs control implant; for number of enlarged duct ends (mean ± S.E.M.) per implanted mammary gland: 3 days E + P
Procedure: Ten-week old BALB/c virgin mice from our own colony were bilaterally ovariectomized 1 or 5 weeks (wks) before hormone treatment. All mice received sc daily injections of 1 μg 17b-estradiol (E)+1 mg progesterone (P) as a suspension in 0.04% gum arabic in 0.85% NaCl; control groups received vehicle only. The E+P dosage was determined from previous studies on mouse mammary gland (Magnusson, C., et al., Int J Cancer 81:339-344 (1999); and Beral V., et al., Lancet 350:1047-1059 (1997)) on the basis that it produced modest sidebranching and alveolar bud development ([…]., Endocrinology 122:464-470 (1998)), and resembled the normal breast tissue of postmenopausal women who had received […]., et al., J Clin Endocrinol Metab 84:4559-4565 (1999)). […] The effects of the implants on the mammary gland were quantified morphometrically by capturing a digitized microscopic image of the mammary gland wholemount at 10× magnification using NIH/Image One software. The numbers and size of duct ends were measured within a 2 cm radius of the implant. Duct ends were considered to be enlarged if they were 1.0 mm or greater in diameter at the 10× magnification.

[9] = 24 hr after E injection, 5 wk post OVX

C[C@]12CC[C@@H]3c4ccc(O)cc4CC[C@H]3[C@@H]1CC[C@@H]2O [E, 17β-estradiol]
percentage of mammary glands exhibiting stimulation of duct ends ([1]; 5 wk post OVX, after E treatment (single ip 1 μg, 4 days later)): 100%
extent of stimulatory response to E as a function of time after ovariectomy ([1]; 9-12 month old mice, OVX 1, 3 or 5 weeks prior to E): identical to that obtained in 10-week-old mice
effect on mammary gland morphology ([1]; E treatment at 1 wk post OVX): no effect on morphology
effect on mammary gland morphology ([1]; E treatment at 5 wk post OVX (late postmenopausal)): pronounced enlargement of duct ends; also recorded: produced enlarged duct ends
time of maximal morphological response after E injection ([1]; mouse, in vivo): 96 h
morphological and DNA synthesis results ([1]; ovariectomized plus adrenalectomized mice): identical to those obtained with ovariectomy alone
concentration at 24 h [2]: 0.031 ± 0.0078 ng/mL
dose for maximal proliferative response ([3]; MCF-7 cells deprived of estrogen for 1-6 months): 10^−14 M
dose for maximal proliferative response ([3]; MCF-7 cells, not estrogen-deprived): 10^−10 M
stimulation of DNA synthesis in stromal cells adjacent to duct ends, 5 wk vs 1 wk post OVX ([4]; 1 μg E, 72 h): 4 fold
ED 50 of E-induced proliferation ([4]; 1 vs 5 wk post OVX): identical
DNA synthesis in ducts ([4]; E-treated, 1 and 5 wk post OVX): little or no DNA synthesis
maximal epithelial proliferative response, 5 wk vs 1 wk post OVX ([4]; after 3 days of daily sc E injection): 2.6 fold
increased proliferative response in mammary stromal cells ([4]; after long-term OVX (discussion)): 3 fold
E-induced stimulation of DNA synthesis in duct ends, 5 wk vs 1 wk post OVX ([4]; duct end epithelium, 1 μg E, 72 h): 6.5 fold
maximum proliferative response, 5 wk vs 1 wk post OVX ([4]; epithelial cells, 72 h): 5.6 fold
steady state stromal cell proliferation, 5 wk vs 1 wk post OVX ([4]; long-term daily E treatment): 2 fold
steady state epithelial proliferation, 5 wk vs 1 wk post OVX ([4]; long-term daily E treatment up to 28 days): 2 fold and 2.3 fold
time of maximal DNA synthesis / proliferative response after E injection ([4]; mammary epithelial and stromal cells): 72 h
maximum proliferative response, 5 wk vs 1 wk post OVX ([4]; stromal cells, 72 h): 2.5 fold
increase in PR concentration per cell ([5]; 1 wk post OVX E-treated mammary glands): 2 fold
numbers of PR positive cells or amount of PR per cell ([5]; 5 wk post OVX E-treated glands): no significant increase
increase in PR in mammary gland ([6]; 12, 24 and 36 h after E injection, 5 wk post OVX): No increase
increase in PR binding in mammary gland ([6]; 24 hr after E injection, 1 wk post OVX): 2.5 fold
increase in PR binding in mammary gland [6, 9]: failed to increase; also recorded: no significant increase
increase in PR in uteri [6, 9]: 8 fold
number of daily E injections until PR levels increased above control ([7]; 5 wk post OVX): 7 daily E injections
increase in PR levels ([7]; 1 wk post OVX): 2.5 fold and 2 fold
increase in PR levels ([7]; 5 wk post OVX): failed to increase PR levels

C[C@]12CC[C@@H]3c4ccc(O)cc4C[C@@H](CCCCCCCCC[S+]([O-])CCCC(F)(F)C(F)(F)F)[C@H]3[C@@H]1CC[C@@H]2O (stereo partly shown) [ICI 182,780]
reduction of number of enlarged duct ends induced by E+P ([8]; 5 wk post OVX): 8 fold
number of enlarged duct ends (mean ± S.E.M.) per implanted mammary gland ([8]; late postmenopause (5 wk post OVX), 0.1 μg ICI 182,780 implant, n = 8): 1.0 ± 1.0

CC#C[C@]1(O)CC[C@H]2[C@@H]3CCC4=CC(=O)CCC4=C3[C@@H](c3ccc(N(C)C)cc3)C[C@@]21C [RU486]
reduction of number of enlarged duct ends induced by E+P ([8]; 1 wk post OVX): 9 fold
number of enlarged duct ends (mean ± S.E.M.) per implanted mammary gland ([8]; early postmenopause (1 wk post OVX), 0.1 μg RU486 implant): 0.75 ± 0.25
number of enlarged duct ends (mean ± S.E.M.) per implanted mammary gland ([8]; late postmenopause (5 wk post OVX), 0.1 μg RU486 implant): 9.0 ± 1.0

— patent US6583334B1, “Ovariectomized mouse model for human menopause” (Board of Trustees operating Michigan State University, priority 2000, dated 2003)
